The values that follow come from ChEMBL document CHEMBL4038268, “Methylpyrrole inhibitors of BET bromodomains” (Bioorg Med Chem Lett, 2017).

The target in data set [1] is T1, Transcription intermediary factor 1-alpha (Homo sapiens, UniProt O15164).
T1 sequence (O15164 whole entry): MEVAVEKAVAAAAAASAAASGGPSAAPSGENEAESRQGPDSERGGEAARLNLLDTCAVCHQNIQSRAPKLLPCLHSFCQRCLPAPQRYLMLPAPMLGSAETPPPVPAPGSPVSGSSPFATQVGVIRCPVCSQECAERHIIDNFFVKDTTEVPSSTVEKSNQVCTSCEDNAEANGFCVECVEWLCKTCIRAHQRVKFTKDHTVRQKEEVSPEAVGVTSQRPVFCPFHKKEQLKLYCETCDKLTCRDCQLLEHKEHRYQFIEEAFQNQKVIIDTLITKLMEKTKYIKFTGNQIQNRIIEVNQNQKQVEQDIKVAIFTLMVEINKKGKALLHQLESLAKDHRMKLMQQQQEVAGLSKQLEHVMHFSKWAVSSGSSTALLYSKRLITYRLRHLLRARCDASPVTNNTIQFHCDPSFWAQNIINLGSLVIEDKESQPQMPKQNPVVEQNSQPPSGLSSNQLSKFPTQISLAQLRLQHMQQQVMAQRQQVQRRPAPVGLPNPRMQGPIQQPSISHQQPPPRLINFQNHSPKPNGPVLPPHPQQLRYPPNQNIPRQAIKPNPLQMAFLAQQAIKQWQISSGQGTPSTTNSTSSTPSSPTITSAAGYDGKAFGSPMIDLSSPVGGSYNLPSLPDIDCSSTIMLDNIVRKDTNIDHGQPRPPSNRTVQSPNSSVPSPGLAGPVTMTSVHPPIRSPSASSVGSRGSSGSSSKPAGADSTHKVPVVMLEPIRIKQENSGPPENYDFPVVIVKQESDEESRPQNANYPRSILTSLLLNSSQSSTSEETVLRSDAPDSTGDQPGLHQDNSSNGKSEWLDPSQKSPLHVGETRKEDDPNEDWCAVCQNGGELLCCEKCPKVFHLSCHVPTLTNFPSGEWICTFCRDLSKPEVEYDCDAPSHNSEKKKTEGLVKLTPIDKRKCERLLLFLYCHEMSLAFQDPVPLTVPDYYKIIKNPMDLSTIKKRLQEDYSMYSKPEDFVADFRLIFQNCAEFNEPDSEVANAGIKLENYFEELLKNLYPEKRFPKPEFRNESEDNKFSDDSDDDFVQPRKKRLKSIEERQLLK
Description: Inhibition of human TRIM24-phd-bromo (P790 to P977 residues) expressed in bacterial expression system by BROMOscan assay.

The target of data set [2] is Bromodomain adjacent to zinc finger domain protein 2A (Homo sapiens, UniProt Q9UIF9). Kind of data set: Inhibition of human BAZ2A (M1792 to L1905 residues) expressed in bacterial expression system by BROMOscan assay.
The target in data set [3] is T2, Bromodomain-containing protein 4 (Homo sapiens, UniProt O60885). Kind of data set: Binding affinity to His-tagged BRD4 BD1-BD2 (K57 to K550 residues) (unknown origin) after 1 hr by Alexa-647-conjugated probe based TR-FRET assay.
Data set [4] deals with Bromodomain-containing protein 2 (Homo sapiens, UniProt P25440). Description: Binding affinity to BRD2 BD1-BD2 (G73 to A560 residues) (unknown origin) after 1 hr by Alexa-647-conjugated probe based TR-FRET assay.
Data set [5] relates to Liver. Kind of data set: Unbound intrinsic clearance in mouse liver microsomes. The class given is ADME, microsome. (Liver microsomes are a subcellular fraction often used to study metabolism.)
For data set [6], the target named is T2, Bromodomain-containing protein 4. Kind of data set: Binding affinity to BRD4 BD1 (K57 to E168 residues) (unknown origin) after 1 hr by Alexa-647-conjugated probe based TR-FRET assay. (Time-resolved FRET reads energy transfer from a long-lived donor to a nearby acceptor.)
Data set [7] has the same target. Kind of data set: Binding affinity to BRD4 BD2 (E352 to M457 residues) (unknown origin) expressed in Escherichia coli BL21 (DE3) after 1 hr by Alexa-647-conjugated probe based TR-FRET assay.
In data set [8] the test system is Mus musculus. Kind of data set: Unbound AUC in mouse at 10 mg/kg, po. The format is ADME, organism-based. Particulars: in vivo.
Data set [9] has as its target T3, Peregrin (Homo sapiens) (UniProt P55201).
T3 sequence (whole entry): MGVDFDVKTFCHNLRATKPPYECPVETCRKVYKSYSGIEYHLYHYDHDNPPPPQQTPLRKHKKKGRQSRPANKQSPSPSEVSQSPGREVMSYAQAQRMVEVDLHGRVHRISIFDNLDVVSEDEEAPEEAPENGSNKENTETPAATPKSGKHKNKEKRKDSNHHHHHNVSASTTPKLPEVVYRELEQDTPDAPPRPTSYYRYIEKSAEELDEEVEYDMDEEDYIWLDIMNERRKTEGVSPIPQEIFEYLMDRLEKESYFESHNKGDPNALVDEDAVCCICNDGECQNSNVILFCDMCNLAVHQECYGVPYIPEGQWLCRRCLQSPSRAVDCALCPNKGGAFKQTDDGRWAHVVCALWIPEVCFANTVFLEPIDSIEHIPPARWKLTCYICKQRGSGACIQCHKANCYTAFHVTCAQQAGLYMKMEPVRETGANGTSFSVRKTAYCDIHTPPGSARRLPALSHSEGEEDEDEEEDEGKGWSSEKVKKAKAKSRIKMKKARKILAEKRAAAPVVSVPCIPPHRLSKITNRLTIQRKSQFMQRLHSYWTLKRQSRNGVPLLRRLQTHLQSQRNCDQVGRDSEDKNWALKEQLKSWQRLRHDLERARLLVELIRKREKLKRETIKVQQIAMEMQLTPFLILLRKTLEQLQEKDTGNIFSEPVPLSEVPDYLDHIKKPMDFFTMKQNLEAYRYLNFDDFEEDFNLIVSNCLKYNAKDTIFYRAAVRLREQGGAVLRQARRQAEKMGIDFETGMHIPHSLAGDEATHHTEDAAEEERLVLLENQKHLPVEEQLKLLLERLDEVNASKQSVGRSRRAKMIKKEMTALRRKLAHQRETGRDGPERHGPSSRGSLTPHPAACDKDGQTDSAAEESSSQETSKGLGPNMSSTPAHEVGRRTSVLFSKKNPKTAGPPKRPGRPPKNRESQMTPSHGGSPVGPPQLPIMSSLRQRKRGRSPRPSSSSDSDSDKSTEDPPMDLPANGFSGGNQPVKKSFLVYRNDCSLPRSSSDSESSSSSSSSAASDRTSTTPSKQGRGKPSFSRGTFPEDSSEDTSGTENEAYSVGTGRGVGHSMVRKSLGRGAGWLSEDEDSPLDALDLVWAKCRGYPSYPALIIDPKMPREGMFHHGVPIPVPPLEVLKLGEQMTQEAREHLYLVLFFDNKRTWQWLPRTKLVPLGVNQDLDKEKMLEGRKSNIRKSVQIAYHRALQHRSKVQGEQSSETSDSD
Kind of data set: Inhibition of human BRPF1 (E627 to G740 residues) expressed in bacterial expression system at 1 uM by BROMOscan assay.

Bromodomain-containing protein 2, sequence (P25440 whole entry, the tested form may be a part): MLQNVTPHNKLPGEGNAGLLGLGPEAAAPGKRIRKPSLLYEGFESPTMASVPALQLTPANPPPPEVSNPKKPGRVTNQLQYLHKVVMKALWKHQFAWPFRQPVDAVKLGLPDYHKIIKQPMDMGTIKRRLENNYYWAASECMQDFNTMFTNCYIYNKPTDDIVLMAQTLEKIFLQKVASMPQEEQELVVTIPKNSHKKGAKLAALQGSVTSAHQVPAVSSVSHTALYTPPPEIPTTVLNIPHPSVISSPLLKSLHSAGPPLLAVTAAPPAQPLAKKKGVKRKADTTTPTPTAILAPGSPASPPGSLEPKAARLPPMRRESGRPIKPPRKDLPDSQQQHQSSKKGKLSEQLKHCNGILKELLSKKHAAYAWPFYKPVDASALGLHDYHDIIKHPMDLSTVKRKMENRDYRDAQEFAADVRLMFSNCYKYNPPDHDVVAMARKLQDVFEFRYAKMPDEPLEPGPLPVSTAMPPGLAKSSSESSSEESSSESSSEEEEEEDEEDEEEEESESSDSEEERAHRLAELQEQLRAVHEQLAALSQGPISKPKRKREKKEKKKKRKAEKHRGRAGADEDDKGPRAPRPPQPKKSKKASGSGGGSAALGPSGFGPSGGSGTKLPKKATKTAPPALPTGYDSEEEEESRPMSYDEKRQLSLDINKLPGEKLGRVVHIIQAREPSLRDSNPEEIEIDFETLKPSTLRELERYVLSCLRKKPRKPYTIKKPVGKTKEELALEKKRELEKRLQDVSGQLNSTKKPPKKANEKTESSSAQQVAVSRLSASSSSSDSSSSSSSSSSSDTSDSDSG
Bromodomain adjacent to zinc finger domain protein 2A, sequence (Q9UIF9 whole entry, the tested form may be a part): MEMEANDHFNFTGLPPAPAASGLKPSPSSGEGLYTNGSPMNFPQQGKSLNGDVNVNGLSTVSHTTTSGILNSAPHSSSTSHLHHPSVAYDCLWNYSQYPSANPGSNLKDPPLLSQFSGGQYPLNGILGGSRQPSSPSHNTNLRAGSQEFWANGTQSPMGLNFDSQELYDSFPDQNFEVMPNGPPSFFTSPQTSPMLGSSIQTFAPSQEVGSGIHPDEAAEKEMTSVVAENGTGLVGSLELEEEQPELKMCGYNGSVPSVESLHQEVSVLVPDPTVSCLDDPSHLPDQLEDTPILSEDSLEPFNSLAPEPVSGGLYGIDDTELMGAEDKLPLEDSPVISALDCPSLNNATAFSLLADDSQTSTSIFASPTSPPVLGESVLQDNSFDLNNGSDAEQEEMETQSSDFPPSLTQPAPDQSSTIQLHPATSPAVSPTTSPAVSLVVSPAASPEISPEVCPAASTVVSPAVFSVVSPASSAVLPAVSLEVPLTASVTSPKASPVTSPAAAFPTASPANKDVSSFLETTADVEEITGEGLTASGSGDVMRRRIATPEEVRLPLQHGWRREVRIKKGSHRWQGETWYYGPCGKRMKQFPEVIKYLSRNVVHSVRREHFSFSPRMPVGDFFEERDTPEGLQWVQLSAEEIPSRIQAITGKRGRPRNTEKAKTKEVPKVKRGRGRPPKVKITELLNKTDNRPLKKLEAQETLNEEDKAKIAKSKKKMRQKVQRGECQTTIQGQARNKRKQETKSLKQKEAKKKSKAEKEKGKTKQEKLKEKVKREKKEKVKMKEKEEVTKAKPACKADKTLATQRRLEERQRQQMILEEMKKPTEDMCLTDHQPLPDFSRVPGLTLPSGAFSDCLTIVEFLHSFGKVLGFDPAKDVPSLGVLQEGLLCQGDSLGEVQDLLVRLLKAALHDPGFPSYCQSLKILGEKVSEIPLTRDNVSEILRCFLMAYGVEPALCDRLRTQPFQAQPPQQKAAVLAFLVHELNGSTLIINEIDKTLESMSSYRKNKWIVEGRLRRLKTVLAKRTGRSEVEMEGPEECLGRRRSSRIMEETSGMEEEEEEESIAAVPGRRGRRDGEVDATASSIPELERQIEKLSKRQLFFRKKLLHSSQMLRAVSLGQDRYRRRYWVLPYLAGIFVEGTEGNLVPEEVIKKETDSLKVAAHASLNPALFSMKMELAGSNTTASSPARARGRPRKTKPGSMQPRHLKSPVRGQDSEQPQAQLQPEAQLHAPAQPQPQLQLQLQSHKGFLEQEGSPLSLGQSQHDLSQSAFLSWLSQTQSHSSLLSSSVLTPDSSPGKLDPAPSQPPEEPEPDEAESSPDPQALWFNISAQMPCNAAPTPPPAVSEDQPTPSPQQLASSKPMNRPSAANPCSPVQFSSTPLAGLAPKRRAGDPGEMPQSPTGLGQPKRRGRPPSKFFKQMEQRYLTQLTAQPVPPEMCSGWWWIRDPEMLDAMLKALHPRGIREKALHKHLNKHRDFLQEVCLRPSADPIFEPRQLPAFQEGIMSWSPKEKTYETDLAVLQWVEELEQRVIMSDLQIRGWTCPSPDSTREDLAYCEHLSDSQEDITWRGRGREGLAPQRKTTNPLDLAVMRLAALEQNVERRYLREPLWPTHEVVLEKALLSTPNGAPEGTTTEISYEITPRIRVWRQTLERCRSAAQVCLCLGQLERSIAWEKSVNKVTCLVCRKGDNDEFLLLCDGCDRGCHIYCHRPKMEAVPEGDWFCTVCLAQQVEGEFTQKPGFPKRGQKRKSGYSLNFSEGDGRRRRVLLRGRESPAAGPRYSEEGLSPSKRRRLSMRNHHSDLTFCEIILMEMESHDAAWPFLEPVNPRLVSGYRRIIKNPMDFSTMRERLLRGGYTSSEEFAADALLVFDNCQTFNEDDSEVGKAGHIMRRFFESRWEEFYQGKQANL

By IC50 is commonly meant the midpoint of a concentration-inhibition curve. A higher IC50 goes with lower potency. One may read the Ki as the equilibrium dissociation constant of an inhibitor or competing ligand from its target. A higher Ki goes with weaker binding. What is called inhibition is how much of the control response was suppressed. A low value points to a response near the control. `Cc1[nH]c(-c2cc(NS(C)(=O)=O)ccc2Oc2ccccc2)c2c1C(=O)CCC2`: the half-inhibitory concentration (IC50) in data set [1] is more than 10000 nM; in [2], 10000 nM. The Ki in data set [3] was 33 nM; in [4], 14 nM; in data set [6] it was 18 nM; in [7] it was 38 nM. Further, in [5], the CL free came to 917 mL/min/kg. In addition, the fAUC in [8] came to 0.09 µM·h. Moreover, the inhibition in data set [9] is 100%.
On to `Cn1cc(-c2cc(S(C)(=O)=O)ccc2Oc2ccc(F)cc2F)c2cc[nH]c(=O)c21`, for which the IC50 in data set [1] and in data set [2] was 10000 nM each time. The Ki in data set [3] turned out to be 98 nM; in data set [4], 160 nM; in data set [6] it was 77 nM; in data set [7], 280 nM. The compound further showed a CL free in data set [5] of 200 mL/min/kg. The fAUC in data set [8] amounted to 0.86 µM·h. Besides, the inhibition in [9] stood at 83%.
As for `Cc1[nH]c(-c2cc(S(C)(=O)=O)ccc2Oc2ccc(F)cc2F)c2c1C(=O)NCC2`, the IC50 in data set [1] and in data set [2] was more than 10000 nM each time. For the same compound, the Ki in data set [3] is 300 nM; in data set [4] it was 27 nM; in data set [6], 34 nM; in data set [7], 38 nM. Also, the CL free in data set [5] is less than 115 mL/min/kg. The same compound displayed a fAUC in data set [8] of 0.53 µM·h. In data set [9], this compound returned an inhibition of 98.6%.
